Data on 26 molecules can be found in patent US8785460B2, “Tricyclic compounds and use thereof” (Takeda Pharmaceutical Company Limited, priority 2008, dated 2014).

One data set addresses T1, human CRF1 receptor (Homo sapiens, UniProt P34998).
T1 construct: expressed in transfected cells; host or cells: CHO cells (membrane fraction)
T1 sequence (P34998 24-415): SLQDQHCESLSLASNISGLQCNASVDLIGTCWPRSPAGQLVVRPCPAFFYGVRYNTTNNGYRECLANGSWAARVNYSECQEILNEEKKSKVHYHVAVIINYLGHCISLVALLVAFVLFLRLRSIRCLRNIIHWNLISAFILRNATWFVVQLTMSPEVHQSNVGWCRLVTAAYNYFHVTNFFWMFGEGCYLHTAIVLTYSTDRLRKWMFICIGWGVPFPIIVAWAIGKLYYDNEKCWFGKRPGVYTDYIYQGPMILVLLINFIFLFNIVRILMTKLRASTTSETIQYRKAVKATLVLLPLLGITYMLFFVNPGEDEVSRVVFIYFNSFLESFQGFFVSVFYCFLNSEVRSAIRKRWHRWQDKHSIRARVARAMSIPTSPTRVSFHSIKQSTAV
Briefly: Measurement of CRF Binding Inhibitory Rate (receptor binding experiment with 125I-CRF). The settings on record: human CRF1 receptor expressing CHO cellular membrane fraction, 50 pM 125I-CRF, room temperature 1.5 hr, 0.05 nM to 10 μM of compound; read-out: IC50 values (CRF binding inhibition).

The term IC50 denotes the midpoint of a concentration-inhibition curve. As a reminder, the melting point is the temperature, or range, at which the solid turns liquid. For `Cc1nc(N(C)C)ccc1N1CCCn2c1nc1c(Cl)ccc(C(OC(F)F)C(F)(F)F)c12` (stereo not shown) [Example 298, 5-{9-Chloro-6-[1-(difluoromethoxy)-2,2,2-trifluoroethyl]-3,4-dihydropyrimido[1,2-a]benzimidazol-1(2H)-yl}-N,N,6-trimethylpyridin-2-amine], the melting point fell in the range of 233 to 235 °C. Moreover, the IC50 on human CRF1 receptor is < 1 µM.

For the molecule `CCN(CC)c1cccc2nc3n(c12)CC(=O)CCN3c1ccc(Cl)cc1Cl` [Example 71, 1-(2,4-Dichlorophenyl)-7-(diethylamino)-2,3-dihydro-1H-[1,3]diazepino[1,2-a]benzimidazol-4(5H)-one], the melting point fell in the range of 169 to 170 °C. Also, the IC50 on human CRF1 receptor was < 1 µM.

With `CC(=O)OC(C)c1ccc(Cl)c2nc3n(c12)CCCN3c1ccc(Cl)cc1Cl` (stereo not shown) [Example 243, 1-[9-Chloro-1-(2,4-dichlorophenyl)-1,2,3,4-tetrahydropyrimido[1,2-a]benzimidazol-6-yl]ethyl acetate], the melting point was in the range of 204 to 206 °C. For the same molecule, the IC50 on human CRF1 receptor is < 1 µM.

The molecule `CCC(OCC1CC1)c1ccc(Cl)c2nc3n(c12)CCCN3c1ccc(Cl)cc1Cl` (stereo not shown) [Example 236, 9-Chloro-6-[1-(cyclopropylmethoxy)propyl]-1-(2,4-dichlorophenyl)-1,2,3,4-tetrahydropyrimido[1,2-a]benzimidazole] gave a melting point of 159 to 160 °C. Also, on human CRF1 receptor, the IC50 is < 1 µM.

On to `CCN(CC)c1cccc2nc3n(c12)CCCNC3c1ccc(Cl)cc1Cl` (stereo not shown) [Example 509, 1-(2,4-Dichlorophenyl)-N,N-diethyl-2,3,4,5-tetrahydro-1H-[1,4]diazepino[1,2-a]benzimidazol-7-amine], for which the melting point lay within 186 to 188 °C. For the same molecule, the IC50 at human CRF1 receptor is < 1 µM.

The molecule `CCC(CC)c1ccc(Cl)c2nc3n(c12)CCCCN3c1cnc(C(C)=O)cc1C` [Example 60, 1-{5-[10-Chloro-7-(1-ethylpropyl)-2,3,4,5-tetrahydro-1H-[1,3]diazepino[1,2-a]benzimidazol-1-yl]-4-methylpyridin-2-yl}ethanone] displayed a melting point of 144 to 145 °C. For the same molecule, the IC50 on human CRF1 receptor was < 1 µM.

`CCN(CC)c1cccc2nc3n(c12)CC(CCO)N3c1ccc(Cl)cc1Cl` (stereo not shown) [Example 74, 2-[1-(2,4-Dichlorophenyl)-5-(diethylamino)-2,3-dihydro-1H-imidazo[1,2-a]benzimidazol-2-yl]ethanol] showed a melting point of 222 to 223 °C. Further, at human CRF1 receptor, the IC50 was < 1 µM.

`CCC(NC(=O)OC)c1ccc(Cl)c2nc3n(c12)CCCN3c1ccc(Cl)cc1Cl` (stereo not shown) [Example 446, Methyl {1-[9-chloro-1-(2,4-dichlorophenyl)-1,2,3,4-tetrahydropyrimido[1,2-a]benzimidazol-6-yl]propyl}carbamate] came in with a melting point of 201 to 203 °C. In addition, on human CRF1 receptor, the IC50 was < 1 µM.

The molecule `FC(F)(F)C(OC1CC1)c1ccc(Cl)c2nc3n(c12)CCCN3c1ccc(Cl)cc1Cl` (stereo not shown) [Example 308, 9-Chloro-6-[1-(cyclopropyloxy)-2,2,2-trifluoroethyl]-1-(2,4-dichlorophenyl)-1,2,3,4-tetrahydropyrimido[1,2-a]benzimidazole] had a melting point of 197 to 200 °C. The IC50 at human CRF1 receptor was < 1 µM.

Regarding `CC(=O)OC(c1ccc(Cl)c2nc3n(c12)CCCN3c1ccc(Cl)cc1Cl)C(F)(F)F` (stereo not shown) [Example 311, 1-[9-Chloro-1-(2,4-dichlorophenyl)-1,2,3,4-tetrahydropyrimido[1,2-a]benzimidazol-6-yl]-2,2,2-trifluoroethyl acetate], the melting point was in the range of 197 to 199 °C. Also, the concentration for half-maximal inhibition (IC50) on human CRF1 receptor was < 1 µM.

On to `CCC(=O)OC(CC)c1ccc(Cl)c2nc3n(c12)CCCN3c1ccc(Cl)cc1Cl` (stereo not shown) [Example 241, 1-[9-Chloro-1-(2,4-dichlorophenyl)-1,2,3,4-tetrahydropyrimido[1,2-a]benzimidazol-6-yl]propyl propanoate], for which the melting point is 133 to 135 °C. On human CRF1 receptor, the half-maximal inhibitory concentration (IC50) is < 1 µM.

As for `CCC(CC)c1ccc(Cl)c2nc3n(c12)CCN3c1ccc(Br)cc1Cl` [Example 12, 1-(4-Bromo-2-chlorophenyl)-8-chloro-5-(1-ethylpropyl)-2,3-dihydro-1H-imidazo[1,2-a]benzimidazole], the melting point lay within 165 to 168 °C. Besides, on human CRF1 receptor, the IC50 is < 1 µM.

Regarding `CCC(CC)c1ccc(Cl)c2nc3n(c12)CCCCN3c1cnc(OC)cc1C` [Example 30, 10-Chloro-7-(1-ethylpropyl)-1-(6-methoxy-4-methylpyridin-3-yl)-2,3,4,5-tetrahydro-1H-[1,3]diazepino[1,2-a]benzimidazole], the melting point fell in the range of 112 to 114 °C. Moreover, on human CRF1 receptor, the half-inhibitory concentration (IC50) is < 1 µM.

`CCC(CC)c1ccc(Cl)c2nc3n(c12)CCCCN3c1ncc(C(F)(F)F)cc1Cl` [Example 63, 10-Chloro-1-[3-chloro-5-(trifluoromethyl)pyridin-2-yl]-7-(1-ethylpropyl)-2,3,4,5-tetrahydro-1H-[1,3]diazepino[1,2-a]benzimidazole]: the melting point was 108 to 110 °C. Also, the IC50 at human CRF1 receptor is < 1 µM.

`CCN(CC)c1cccc2nc3n(c12)CCCN3c1nnc(Cl)cc1C` [Example 80, 1-(6-Chloro-4-methylpyridazin-3-yl)-N,N-diethyl-1,2,3,4-tetrahydropyrimido[1,2-a]benzimidazol-6-amine] displayed a melting point of 193 to 195 °C. In addition, the IC50 at human CRF1 receptor was < 1 µM.

`CCC(NC(=O)OC)c1ccc(Cl)c2nc3n(c12)CCCN3c1c(Cl)cc(Cl)cc1Cl` (stereo not shown) [Example 410, Methyl {1-[9-chloro-1-(2,4,6-trichlorophenyl)-1,2,3,4-tetrahydropyrimido[1,2-a]benzimidazol-6-yl]propyl}carbamate] had a melting point of 231 to 233 °C. The IC50 at human CRF1 receptor is < 1 µM.

Regarding `CCC(OCC(F)F)c1ccc(Cl)c2nc3n(c12)CCCN3c1ccc(OC)nc1C` (stereo not shown) [Example 273, 9-Chloro-6-[1-(2,2-difluoroethoxy)propyl]-1-(6-methoxy-2-methylpyridin-3-yl)-1,2,3,4-tetrahydropyrimido[1,2-a]benzimidazole], the melting point is 130 to 132 °C. Moreover, the IC50 at human CRF1 receptor was < 1 µM.

Molecule `CCOc1ccc(N2CCCn3c2nc2c(Cl)ccc(C(OC(F)F)C(F)(F)F)c23)c(C)c1` (stereo not shown) [Example 356, 9-Chloro-6-[1-(difluoromethoxy)-2,2,2-trifluoroethyl]-1-(4-ethoxy-2-methylphenyl)-1,2,3,4-tetrahydropyrimido[1,2-a]benzimidazole] came in with a melting point of 179 to 182 °C. The IC50 on human CRF1 receptor was < 1 µM.

In turn, `CC/C(=N\OC(F)F)c1ccc(Cl)c2nc3n(c12)CCCN3c1c(C)nc(OC)nc1C` [Example 193, (1E)-1-[9-Chloro-1-(2-methoxy-4,6-dimethylpyrimidin-5-yl)-1,2,3,4-tetrahydropyrimido[1,2-a]benzimidazol-6-yl]propan-1-one O-(difluoromethyl)oxime] registered a melting point of 199 to 200 °C. The IC50 on human CRF1 receptor is < 1 µM.

In turn, `CCOC(CC)c1ccc(Cl)c2nc3n(c12)CCCN3c1cnc(N(C)C)cc1C` (stereo not shown) [Example 156, 5-[9-Chloro-6-(1-ethoxypropyl)-3,4-dihydropyrimido[1,2-a]benzimidazol-1(2H)-yl]-N,N,4-trimethylpyridin-2-amine] returned a melting point of 179 to 180 °C. Further, on human CRF1 receptor, the half-maximal inhibitory concentration (IC50) was < 1 µM.

Take `CCC(OC1CC1)c1ccc(Cl)c2nc3n(c12)CCCN3c1ccc(Cl)cc1Cl` (stereo not shown) [Example 306, 9-Chloro-6-[1-(cyclopropyloxy)propyl]-1-(2,4-dichlorophenyl)-1,2,3,4-tetrahydropyrimido[1,2-a]benzimidazole]: the melting point fell in the range of 147 to 149 °C. For the same molecule, the IC50 at human CRF1 receptor is < 1 µM.

Regarding `COc1ccc(N2CCCn3c2nc2c(Cl)ccc(C(O)(C4CC4)C4CC4)c23)c(C)c1` [Example 354, [9-Chloro-1-(4-methoxy-2-methylphenyl)-1,2,3,4-tetrahydropyrimido[1,2-a]benzimidazol-6-yl](dicyclopropyl)methanol], the melting point was in the range of 181 to 182 °C. Also, the IC50 on human CRF1 receptor is < 1 µM.

Take `COc1nc(C)nc(OC)c1N1CCCn2c1nc1c(Cl)ccc(C(O)(C3CC3)C3CC3)c12` [Example 174, [9-Chloro-1-(4,6-dimethoxy-2-methylpyrimidin-5-yl)-1,2,3,4-tetrahydropyrimido[1,2-a]benzimidazol-6-yl](dicyclopropyl)methanol]: the melting point was in the range of 204 to 205 °C. Also, on human CRF1 receptor, the concentration for half-maximal inhibition (IC50) is < 1 µM.

Regarding `CCC(CC)c1ccc(Cl)c2nc3n(c12)CCCCN3c1cc(C)cc2c1ncn2C` [Example 230, 10-Chloro-1-(1,6-dimethyl-1H-benzimidazol-4-yl)-7-(1-ethylpropyl)-2,3,4,5-tetrahydro-1H-[1,3]diazepino[1,2-a]benzimidazole], the melting point lay in the range of 259 to 260 °C. On human CRF1 receptor, the IC50 was < 1 µM.

As to `CCC(O)(CC)c1ccc(Cl)c2nc3n(c12)CCCN3c1ccc(Cl)cc1Cl` [Example 107, 3-[9-Chloro-1-(2,4-dichlorophenyl)-1,2,3,4-tetrahydropyrimido[1,2-a]benzimidazol-6-yl]pentan-3-ol], the melting point was in the range of 199 to 201 °C. Also, the IC50 at human CRF1 receptor was < 1 µM.

For `CCCC(O)c1ccc(Cl)c2nc3n(c12)CCCN3c1ccc(Cl)cc1Cl` (stereo not shown) [Example 114, 1-[9-Chloro-1-(2,4-dichlorophenyl)-1,2,3,4-tetrahydropyrimido[1,2-a]benzimidazol-6-yl]butan-1-ol], the melting point lay in the range of 220 to 221 °C. For the same molecule, the IC50 at human CRF1 receptor is < 1 µM.
